Patent publication US20240208898A1, “ENAMINE N-OXIDES: SYNTHESIS AND APPLICATION TO HYPOXIA-RESPONSIVE PRODRUGS AND IMAGING AGENTS” (DANA-FARBER CANCER INSTITUTE, INC., priority 2021, published 2024)

Legend:
[1] = system: BxPC-3 xenograft mouse model; assay: Near infrared imaging in live mice; assay type: in vivo; details: intraperitoneal 20 mg/kg
Procedure: All animal experiments were performed according to procedures and protocols approved by the Dana-Farber Cancer Institute Institutional Animal Care and Use Committee. Bx-PC3 cells were grown to confluency in antibiotic-free RPMI supplemented with 10% FBS, trypsinized, and washed three times with ice cold PBS (50 mL). Cells were resuspended in PBS at a concentration of 1.0×10^7 cells per 100 μL. 8-week old, female, homozygous NU/J mice (Jackson Laboratory) were subcutaneously injected with 1.0×10^7 Bx-PC3 cells over the right hind flank under isoflurane anesthesia. Experiments were performed when tumors reached 1000 mm^3 in size. Mice were intraperitoneally injected with a solution of Si700-enamine N-oxide probe 42 (20 mg/kg, 7.93 mM in 0.9% saline). Under isoflurane anesthesia, mice were then imaged with a Xenogen IVIS 100 fluorescence imager using an excitation of 675 nm and emission of 720 nm at various time points (0 hours (before treatment), 6 hours, 24 hours and 30 hours (after treatment)). Mice were then intraperitoneally injected with a solution of Si700-enamine N-oxide probe 42 (20 mg/kg, 7.93 mM in 0.9% saline) 30 hours post injection. After 16 hours, mice were intraperitoneally injected with a bolus of pimonidazole solution (200 μL, 25.8 mM pimonidazole in 0.9% saline). […]

[2] = system: BxPC-3 pancreatic cancer cell line; assay: In-gel fluorescence imaging of cells labeled by enamine N-oxides; assay type: cell-based
Procedure: Cells were seeded at a density of 200,000 cells per well in media [2 mL, RPMI (A431, H460, HeLa, Bx-PC3, MDA-MB-231) or DMEM (U251) supplemented with 5% heat-inactivated human serum (Sigma), penicillin (100 units/mL), and streptomycin (0.1 mg/mL)] in 6-well plates. Cells were incubated at 37° C. under ambient atmosphere with 5% CO2. After 24 h, the media was aspirated and replaced with fresh media [1 mL, RPMI (A431, H460, HeLa, Bx-PC3, MDA-MB-231) or DMEM (U251) supplemented with 5% heat-inactivated human serum, penicillin (100 units/mL), and streptomycin (0.1 mg/mL)] containing enamine N-oxide probe (200 mM in ethanol; 10 μM final concentration). Plates were then incubated at 37° C. under ambient (20% pO2) or various oxygenated conditions (5%, 1%, or 0.1% pO2) with 5% CO2. Oxygenated conditions were maintained using a hypoxia chamber (ProOx C21, Biospherix) in a cell culture incubator. […] PBS (1 mL) was then added to each well and cells were scraped off with a cell scraper. The cell suspensions were placed into microcentrifuge tubes and pelleted by spinning at 10,000×g for 5 minutes at 4° C. The supernatant was then removed, and the pellet was dissolved with an SDS solution (100 μL, 1% SDS in 50 mM Tris buffer, pH 8.0). The protein concentration was determined by BCA assay following the manufacturer's protocol (Pierce). The sample was then labeled using the copper-catalyzed azide-alkyne cycloaddition (CuAAC). […] The dried pellet was then resuspended in an SDS solution (50 μL, 1% SDS in 50 mM Tris, pH 8.0), and the protein concentration was determined by BCA assay. […] In-gel fluorescence was visualized by a laser scanner (Typhoon™ FLA 9500, GE) and quantified using ImageJ software. […] Detection was mediated by an anti-rabbit IR680-dye conjugated secondary antibody (LI-COR Biosciences, 925-68071) and imaged using a fluorescence scanner (Odyssey CLx, LI-COR Biosciences).

Structure (SMILES) | near-infrared fluorescence imaging: accumulation in the tumor [1] | labeling of cells under normoxia and hypoxia ([2]; Bx-PC3 cells, 10 μM, 12 h, in-gel fluorescence after CuAAC with TAMRA-azide) | labeling in cell culture (oxygen dependence) ([2]; BxPC-3, 48 h) | oxygen tension of probe activation ([2]; BxPC-3, over 48 h, CuAAC with TAMRA-azide)
C#CCN(CCCCCC(F)/C=C/[N+]([O-])(CC)CC)C(=O)c1ccc(C2=c3cc4c(cc3[Si](C)(C)c3cc5c(cc32)CCN5C)=[N+](C)CC4)c(C)c1 (stereo not shown) [probe 42, Si700-enamine N-oxide] | preferential accumulation of enamine N-oxide probe 42 in the tumor | labeled Bx-PC3 cells in a hypoxia-dependent manner | – | –
C#CCCCCC(F)/C=C/[N+]([O-])(CC)CC (stereo not shown) [probe 39, (E)-N,N-diethyl-3-fluoronon-1-en-8-yn-1-amine oxide] | – | – | oxygen-dependent labeling | ca. 1 % pO2
